# Where “and” joins values, the source holds several entries; their conditions need not be identical. Equal values may be shown once.
# Test system: BALB/3T3 clone A31
# Assay: in vitro 3T3 NRU phototoxicity test
# Assay type: cell-based
# Conditions: for PIF (Photo irritation factor): calculated from IC50 with and without UV (Phototox 2.6)
# Method: This test was to evaluate phototoxicity after treating cells of BALB/3T3 clone A31 with a sample in the in vitro 3T3 NRU phototoxicity test. The phototoxicity was identified by evaluating cell viability, IC50 according to the presence or absence of light irradiation, and phototoxicity according to concentration response [photo irritation factor (PIF), and mean photo effect (MPE)].
# In addition, as a negative control group, PBS diluted in DMEM was used.
# Each of test substances was dissolved in PBS and diluted in steps at […] 2.
# UVA (315-400 nm) causing a phototoxic reaction by activating chemical materials without toxicity to cells was irradiated, and the amount of light was 5 J/cm^2.
# 100 μl of cell suspension (1×10^4 cells/well) and medium were dispensed into two 96 well plates per group, and the cells were cultured for 24 hours in a cell incubator at 37° C. and 5% CO^2.
# After removing the medium, the cells were washed once with 150 μl of warm PBS.
# The UV irradiation plate was irradiated with UVA at a light intensity of 5 J/cm^2, and while UV was irradiated, the non-irradiated plate was shielded with aluminum foil and left at room temperature. After removing the solution, washing was performed twice with 150 μl of warm PBS. 100 μl of the medium was dispensed and the cells were cultured for 20±2 hours in a cell incubator at 37° C. and 5% CO2.
# The growth and morphology of the cells were observed using a microscope, the medium was removed therefrom, and then the cells were washed once with 150 μl of warm PBS. After dispensing 100 μl of neutral red medium, the cells were incubated for 3 hours in a cell incubator at 37° C. and 5% CO2. After removing the neutral red medium, the cells were washed once with 150 μl of warm PBS. 150 μl of neutral red extract was dispensed, and the plate was stirred for 10 minutes while light was shielded.
# Absorbance was measured at a wavelength of 540 nm by using a multi-channel microplate reader.
# Phototoxicity was judged by calculating PIF and MPE values using IC50 according to the presence or absence of light irradiation.
# PIF and MPE values were calculated from the measured absorbance values by using the software (Phototox 2.6, ZEBET at the BFR, Berlin Germany), and no statistical method was performed.
smiles,measurement,setting,value
CN(C)CCCN1c2ccccc2Sc2ccc(Cl)cc21 [CPZ],Cell viability (% of NC),"UV (+), 0.04 μg/mL",102.67 % of NC
same,Cell viability (% of NC),"UV (+), 0.08 μg/mL",89.09 % of NC
same,Cell viability (% of NC),"UV (+), 0.16 μg/mL",98.75 % of NC
same,Cell viability (% of NC),"UV (+), 0.31 μg/mL",106.73 % of NC
same,Cell viability (% of NC),"UV (+), 0.63 μg/mL",103.10 % of NC
same,Cell viability (% of NC),"UV (+), 2.5 μg/mL",11.51 % of NC
same,Cell viability (% of NC),"UV (+), 5 μg/mL",12.32 % of NC
same,"IC50 (50% inhibitory concentration, cell viability)","UV (+), UVA 5 J/cm^2, listed as PC",1.650 µg/mL
same,Cell viability (% of NC),"UV (−), 1.56 μg/mL",109.65 % of NC
same,Cell viability (% of NC),"UV (−), 3.13 μg/mL",103.07 % of NC
same,Cell viability (% of NC),"UV (−), 6.25 μg/mL",114.87 % of NC
same,Cell viability (% of NC),"UV (−), 25 μg/mL",65.55 % of NC
same,Cell viability (% of NC),"UV (−), 50 μg/mL",9.50 % of NC
same,Cell viability (% of NC),"UV (−), 100 μg/mL",9.37 % of NC
same,Cell viability (% of NC),"UV (−), 200 μg/mL",9.31 % of NC
same,"IC50 (50% inhibitory concentration, cell viability)","UV (−), UV not irradiated, listed as PC",28.043 µg/mL
same,PIF (Photo irritation factor),listed as PC,17.144
same,PIF (Photo irritation factor),listed as positive control material,17.1444 and 17.144
same,MPE (Mean photo effect),calculated from concentration response with and without UV (Phototox 2.6),0.459
